# Biological target: T1, α4β2 subtype of nicotinic acetylcholine receptors (Rattus norvegicus, UniProt P09483+P12390)
# T1 construct: examined using rat brain membrane obtained from whole homogenized brain; from tissue; host or cells: whole brain of Fischer-344 male rats, membrane pellet
# Experiment: Binding assays at α4β2 subtype of nicotinic acetylcholine receptors ([3H]-cytisine, rat brain membrane)
# Settings: not given
# T1 sequence (P09483 31-630): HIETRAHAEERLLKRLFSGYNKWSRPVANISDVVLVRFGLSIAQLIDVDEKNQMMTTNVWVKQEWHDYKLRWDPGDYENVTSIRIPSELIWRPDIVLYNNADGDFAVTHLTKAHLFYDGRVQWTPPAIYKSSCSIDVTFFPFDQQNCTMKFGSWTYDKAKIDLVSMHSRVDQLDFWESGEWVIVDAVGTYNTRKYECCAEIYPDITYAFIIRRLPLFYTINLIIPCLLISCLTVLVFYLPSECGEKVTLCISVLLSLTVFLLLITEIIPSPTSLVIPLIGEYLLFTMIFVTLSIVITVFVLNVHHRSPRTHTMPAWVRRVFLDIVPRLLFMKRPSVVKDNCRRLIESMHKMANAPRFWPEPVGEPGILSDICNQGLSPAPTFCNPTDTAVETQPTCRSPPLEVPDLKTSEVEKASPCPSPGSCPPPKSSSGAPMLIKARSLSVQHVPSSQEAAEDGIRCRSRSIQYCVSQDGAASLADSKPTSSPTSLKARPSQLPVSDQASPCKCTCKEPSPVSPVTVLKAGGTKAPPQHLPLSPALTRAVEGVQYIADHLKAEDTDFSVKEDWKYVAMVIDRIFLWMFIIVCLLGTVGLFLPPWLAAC
# T1 sequence (P12390 25-500): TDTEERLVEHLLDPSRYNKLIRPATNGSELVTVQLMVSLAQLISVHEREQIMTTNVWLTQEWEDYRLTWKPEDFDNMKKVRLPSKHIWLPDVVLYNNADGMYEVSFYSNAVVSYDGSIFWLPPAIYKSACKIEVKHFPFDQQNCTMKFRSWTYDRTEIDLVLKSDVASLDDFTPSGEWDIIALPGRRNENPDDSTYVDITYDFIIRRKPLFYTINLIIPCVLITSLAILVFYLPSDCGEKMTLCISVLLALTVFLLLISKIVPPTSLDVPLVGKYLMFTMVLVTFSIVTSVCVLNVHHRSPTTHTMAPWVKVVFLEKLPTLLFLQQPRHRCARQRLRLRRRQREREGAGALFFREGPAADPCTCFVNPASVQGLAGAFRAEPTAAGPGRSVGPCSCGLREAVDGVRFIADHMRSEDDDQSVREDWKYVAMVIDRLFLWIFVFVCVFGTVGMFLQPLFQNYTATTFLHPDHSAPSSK
row,SMILES,Ki [nM]
1,"N=C1SCCN1Cc1ccnnc1 [Compound 33, 2-imino-3-(4-pyridazinyl)methylthiazolidine]",32
2,"N=c1sccn1Cc1ccc(Br)nc1 [Compound 11, 3-(6-bromo-3-pyridyl)methyl-2-imino-2,3-dihydrothiazole]",0.63
3,"N=C1SCCN1Cc1cnc(Cl)s1 [Compound 34, 3-(2-chloro-5-thiazolyl)methyl-2-iminothiazolidine]",4.9
4,"N=c1ccc(-c2ccccc2)nn1Cc1ccc(Cl)nc1 [Compound 44, 2-(6-chloro-3-pyridyl)methyl-3-imino-6-phenyl-2,3-dihydropyridazine]",64
5,"N=C1SCCN1Cc1ccc(Cl)cc1 [Compound 31, 3-(4-chlorobenzyl)-2-iminothiazolidine]",93
6,"N=c1sccn1Cc1ccc(F)nc1 [Compound 12, 3-(6-fluoro-3-pyridyl)methyl-2-imino-2,3-dihydrothiazole]",1.89

# Same assay, conditions: rat brain membrane, [3H]-cytisine (2 nM); read-out: Affinities for receptors Ki α4β2
row,SMILES,Ki [nM]
1,"Nc1nccn1Cc1cccnc1 [Compound 55, 2-amino-i-(3-pyridyl)methylimidazole]",43
2,"N=C1SCCN1Cc1ccc(Cl)nc1 [Compound 5, 3-(6-chloro-3-pyridyl)methyl-2-iminothiazolidine]",2.2
3,"N=C1CCCN1Cc1ccc(Cl)nc1 [Compound 14, 1-(6-Chloro-3-pyridyl)methyl-2-iminopyrrolidine]",1.9
4,"Nc1nccn1Cc1ccc(Cl)nc1 [Compound 9, 2-amino-1-(6-chloro-3-pyridyl)methylimidazole]",22.2
5,"N=c1sccn1Cc1ccc(Cl)nc1 [Compound 8, 3-(6-chloro-3-pyridyl)methyl-2-imino-2,3-dihydrothiazole]",0.5
6,"N=C1NCCN1Cc1ccc(Cl)nc1 [Compound 13, 1-(6-Chloro-3-pyridyl)methyl-2-iminoimidazolidine]",4.6
7,"N=c1ccccn1Cc1ccc(Cl)nc1 [Compound 7, 1-(6-chloro-3-pyridyl)methyl-2-imino-1,2-dihydropyridine]",3.1
